Reference: paper PMC12108424, “Genetically Modified Mesenchymal Stromal/Stem Cells as a Delivery Platform for SE-33, a Cathelicidin LL-37 Analogue: Preclinical Pharmacokinetics and Tissue Distribution in C57BL/6 Mice” (Antibiotics, 2025)
Where no end group is shown, it is not given here.

Experiments:
[1] = parameters: species or system C57BL/6 mice; details: mouse, in vivo
Protocol: The tissue availability and distribution of SE-33 peptide were further assessed using the following parameters: fT: tissue penetration factor. This parameter reflects the ratio of drug exposure in tissues relative to plasma or serum and is used to assess antimicrobial drug distribution at the target site and to guide therapy selection. In this study, fT was calculated using the following equation:(4) fT=AUC0–t(tissue)/AUC0–t(serum) This approach, commonly applied in evaluating drug distribution within extravascular compartments, particularly for antimicrobial agents, is consistent with its established definition in pharmacokinetics as the tissue-to-plasma AUC ratio [99, 100].

S. aureus = tested on: S. aureus; parameters: method as in PMID 38391576, doi:10.1134/S1068162019020158, PMID 40072070; details: in vitro; cited from earlier work
in vivo [2] = test: in vivo; parameters: species or system C57BL/6 mice; details: iv
Protocol: (§1) The studies were conducted on sexually mature male C57BL/6 mice with an average body weight of 20 g and an age of 8 weeks. The animals were sourced from the “Andreevka”, branch of the Scientific Center of Biomedical Technologies of the Russian Federal Medical and Biological Agency (Russia). The mice underwent a 14-day acclimatization period. The animals were housed in individually ventilated polysulfone cages ISO RAIR 4 × 8 (LabProducts, Aberdeen, WA, USA) with Rehofix MK2000 corn cob bedding (J. Rettenmaier and Söhne GmbH, Rosenberg, Germany). The animal housing environment followed a 12-h light/dark cycle with an ad libitum access to water and standard laboratory feed. The group assignment was based on body weight, ensuring a no more than 10% deviation from the average group weight. All experimental procedures were approved by the Local Ethics Committee (LEC) of the Federal State Budgetary Educational Institution of Higher Education “Privolzhsky Research Medical University” Ministry of Health of the Russian Federation (Protocol No. 06, dated 29 April 2022) and adhered to the guidelines for the care and use of laboratory animals.
(§2) Immediately prior to administration, WJ-MSC-SE33 cells were resuspended in a saline solution (0.9% NaCl). The mice were divided into groups (n = 48) and fasted for 8 h before intravenous injection. The injection volume was calculated based on body weight. Single-dose administrations were 1 × 10^5 cells/mouse (0.5 × 10^7 cells/kg), 2.5 × 10^5 cells/mouse (1.25 × 10^7 cells/kg), and 5 × 10^5 cells/mouse (2.5 × 10^7 cells/kg) (Figure 4B). Repeated administrations were conducted on days 1, 3, and 5 at a dose of 1 × 10^5 cells/mouse (Figure 4B).
Blood samples were collected from the subclavian artery at 4, 8, 12, 16, 20, 24, 36, and 48 h post-administration (n = 6 animals/time point) (Figure 1B). […] The 0 h time point represents samples obtained from animals prior to WJ-MSC-SE33 injection (pre-dose baseline). SE-33 concentrations at baseline were established as 0 μg/mL since the peptide was undetectable (<LLOQ) in all pre-dose samples, confirming the absence of endogenous expression. Blood samples were collected into tubes without an anticoagulant and centrifuged at 3000 rpm for 15 min at room temperature. Then, serum samples were isolated and placed in cryovials. Samples of peripheral tissues (lungs, liver, and spleen) were collected at similar time points. Blood and tissue samples were stored at −79 °C.
(§3) Thawed mouse serum was centrifuged at 12,000 rpm for 30 min using a MiniSpin centrifuge (Eppendorf, Hamburg, Germany). The supernatant was collected and diluted 20-fold with 20 mM TrisHCl (pH 7.8). For peripheral tissue samples, 100 mg of thawed tissue was weighed using Sartorius CPA225D scales (Sartorius, Göttingen, Germany) and homogenized in 1.6 mL of acidified ethanol (0.5 mL HCl in 1000 mL ethanol) using a Heidolph Diax 100 homogenizer (Heidolph Instruments, Schwabach, Germany) at 25,000 rpm on ice for 1 min. The homogenate was centrifuged at 12,000 rpm for 30 min. The supernatant was collected and diluted 20-fold with 20 mM Tris-HCl (pH 7.8).
(§4) To construct a protein that specifically binds to the SE-33 peptide ([…]), a complementary sequence with a high affinity to the SE-33 was calculated using the Antimicrobial Peptide Database APD3 [94, 95]. The sequence was cloned into a plasmid and expressed in E. coli strain BL21(DE3). The protein was then isolated and purified using a Ni-NTA column. Purified protein was conjugated with Epoxy-activated Sepharose 6B, creating a sorbent (Epoxy-Protein Sepharose) with a binding capacity of 240 μg/mL for the SE-33 peptide.
(§5) A column containing 5 mL of Epoxy-Protein Sepharose was equilibrated with 20 mM TrisHCl (pH 7.8). The sample was applied to the column via a 2 mL loop, followed by washing with 25 mL of 20 mM TrisHCl (pH 7.8). The SE-33 peptide was eluted with 5 mL of 75 mM NaCl in 20 mM TrisHCl (pH 7.8) without fractionation. […]

E. coli = tested on: E. coli; parameters: method as in PMID 38391576, doi:10.1134/S1068162019020158, PMID 40072070; details: in vitro; cited from earlier work
in vivo [3] = test: in vivo; parameters: species or system C57BL/6 mice
Protocol: as §1, §2
The 0 h time point represents samples obtained from animals prior to WJ-MSC-SE33 injection (pre-dose baseline). SE-33 concentrations at baseline were established as 0 μg/mL since the peptide was undetectable (<LLOQ) in all pre-dose samples, confirming the absence of endogenous expression. Blood samples were collected into tubes without an anticoagulant and centrifuged at 3000 rpm for 15 min at room temperature. Then, serum samples were isolated and placed in cryovials. Samples of peripheral tissues (lungs, liver, and spleen) were collected at similar time points. Blood and tissue samples were stored at −79 °C.
as §3, §4
as §5, with “fractionation. The eluate enriched with the SE-33 peptide was subjected to solid-phase extraction.” for “fractionation.”

fungi and yeast = tested on: fungi and yeast; parameters: method as in PMID 38391576, doi:10.1134/S1068162019020158, PMID 40072070; details: in vitro; cited from earlier work

SETRPVLNRLFDKIRQVRKEFGKIKEKSRKFM [SE-33]
increase of fT relative to the highest single dose [1]: 20.0% | rise of fT [1]: 25.0% | minimum inhibitory concentration (MIC) (S. aureus): 12.5 µg/mL | AUC (in vivo [2]; male, C57BL/6, mouse): 8210 ng·h/mL | AUC(0-inf) (in vivo [2]; male, C57BL/6, mouse): 8050 ng·h/mL | Cmax (in vivo [2]; male, C57BL/6, mouse): 233 ng/mL | Tmax (in vivo [2]; male, C57BL/6, mouse): 8 h | half-life (in vivo [2]; male, C57BL/6, mouse): 23.1 h | MRT (in vivo [2]; male, C57BL/6, mouse, MRT4–24): 34.2 h | MRT (in vivo [2]; male, C57BL/6, mouse, MRT4–∞): 31.4 h | Tmax (in vivo [2]; mouse): 4 h | minimum bactericidal concentration (MBC) (E. coli): 20 µg/mL | AUC(0-t) (in vivo [3]; male, C57BL/6, mouse, iv): 2010 ng·h/mL | Tmax (in vivo [3]; male, C57BL/6, mouse, iv): 8 h | Cmax (in vivo [3]; male, C57BL/6, mouse, iv, Cmax): 142 ng/mL | MRT (in vivo [3]; male, C57BL/6, mouse, iv, MRT0–∞): 10.4 h | half-life (in vivo [3]; male, C57BL/6, mouse, iv, T1/2 (elimination half-life)): 4.8 h | persistence of the peptide in tissues (in vivo [3]; mouse): up to 48 h | SE-33 concentration at 8 h (in vivo [3]; mouse, iv): 0.043 μg/mL | SE-33 level in liver exceeding that in the lungs (in vivo [3]; mouse, iv): 4 fold | SE-33 levels within 2 h post-intravenous administration (in vivo [3]; mouse, iv): no detectable SE-33 levels | minimum inhibitory concentration (MIC) (fungi and yeast): 31.2 to 1024 µg/mL
